The conditions of data set [1]: clinical; Nijjar J. S., et al., Rheumatology 2013; cited from earlier work.
The subject of data set [2] is patients with previously untreated AML. The experiment in a line: Phase 1b/2 study (NCT02343939): absolute neutrophil counts / neutrophil recovery (FIG. 1).
From the text: (§1) Patients with residual disease two weeks after chemotherapy received a second induction cycle identical to the first.
Data set [3] has the same test system. The experiment in a line: Phase 1b/2 study (NCT02343939): response (complete remission) to entospletinib monotherapy lead-in followed by daunorubicin/cytarabine induction. It is filed as in vivo, human.
From the text: as §1
The test system is the same in data set [4]. The experiment in a line: Phase 1b/2 study (NCT02343939): platelet counts and platelet transfusions (FIG. 2, FIG. 3). The conditions noted are these: for mean number of platelet transfusions required per subject: across monotherapy lead-in and induction cycles; for mean number of transfusions required per subject: induction treatment. It is filed as in vivo, human.
From the text: as §1

Data set [5] has the same test system. The experiment in a line: Phase 1b/2 study (NCT02343939): tolerability, dose limiting toxicity and adverse events.
From the text: as §1

Where “and” joins values, the source holds several entries; their conditions need not be identical. Identical values can stand only once.

`COc1cc(Nc2ncc(F)c(Nc3ccc4c(n3)N(COP(=O)(O)O)C(=O)C(C)(C)O4)n2)cc(OC)c1OC` [Fostamatinib]: in data set [1], the adverse side effects result was “hypertension, neutropenia and transaminitis”.

Take `c1cn2cc(-c3ccc4cn[nH]c4c3)nc(Nc3ccc(N4CCOCC4)cc3)c2n1` [entospletinib]: in data set [2] (200 mg dose level, only evaluable subject with severe neutropenia at baseline), the “recovery time from severe neutropenia” value came out at 66 days. The “ANC recovered to during treatment” value in data set [2] (400 mg dose level, all three evaluable subjects under severe neutropenia cutoff of 200/μL ANC at baseline) is given as “above 200 /μL”. Besides, the “individual time to recovery from severe neutropenia” value in data set [2] (400 mg dose level, individual subjects with severe neutropenia at baseline) is 8 days (2×) and 14 days. Further, the “subjects experiencing severe neutropenia during monotherapy lead-in” value in data set [2] (400 mg dose level, subjects without severe neutropenia at baseline, recovered to above 200/μL by end of first induction cycle) is given as “two of the five subjects”. Also, the “median (Q1, Q3) time to recovery from severe neutropenia” value in data set [2] (400 mg dose level, three subjects with severe neutropenia at baseline) was 8 (8, 14) days. In addition, the “absolute neutrophil counts (ANC)” value in data set [2] (entospletinib monotherapy lead-in period) is recorded as “remained largely stable”. In data set [2] (five subjects (both dose levels) without severe neutropenia at baseline), the “severe neutropenia during induction treatment” value was “none experienced severe neutropenia”. Moreover, the “patients requiring a second induction” value is on record as “two required a second induction” in data set [3] (200 mg BID, 3 patients) and “none required a second induction” in data set [3] (400 mg BID, 6 patients). In data set [3] (person with 11q23-rearranged AML, prior to chemotherapy), the “response after the 14 day entospletinib monotherapy window” value was “morphologic and cytogenetic CR”. Besides, the “platelet transfusions during monotherapy window” value in data set [4] (200 mg dose level) is “One subject received platelet transfusions”; in data set [4] (400 mg dose level) it was “no transfusions were required”. The “mean number of platelet transfusions required per subject” value in data set [4] (200 mg dose level) is 8.7; in data set [4] (400 mg dose level) it was 4.1; in data set [4] (overall (both dose levels)) it was 5.5. In addition, the “platelet response during the window period” value in data set [4] (another patient with 11q23-rearranged AML, monotherapy window) is reported as “significant platelet response”. In addition, the “mean number of transfusions required per subject” value in data set [4] (Cycle 1 (with daunorubicin/cytarabine)) was 4.1; in data set [4] (Cycle 2 (with daunorubicin/cytarabine)), 5.5. Also, the platelet count result in data set [4] (two week entospletinib monotherapy window) is given as “remained stable, or in some cases, improved from baseline”. In addition, the “dose limiting toxicity (DLT)” value in data set [5] (200 mg BID po, three patients) was “no DLT was observed”; in data set [5] (400 mg BID po, 3 additional patients (DL 1 expansion)) it was “none of whom experienced DLT”. Also, the “adverse event possibly related to entospletinib” value in data set [5] (400 mg BID po, one of three patients (documented fungal pneumonia), did not meet DLT criteria) is on record as “grade 3 pneumonitis”. Also, the “tolerability of single-agent entospletinib” value in data set [5] (monotherapy window period (up to 14 days), before chemotherapy) is listed as “well tolerated”. In addition, in data set [5] (overall, inclusive of intensive chemotherapy periods (daunorubicin + cytarabine)), the “most common non hematologic adverse events” value was “febrile neutropenia, nausea, and diarrhea”.

These data come from patent publication US10111882B2, “SYK inhibitors” (Gilead Sciences, Inc., priority 2016, dated 2018).
